Assay results: US20180273531A1, “PYRIMIDINE COMPOUND AND MEDICAL USE THEREOF” (Japan Tobacco Inc., priority 2004, published 2018)

Test system: colorectal cancer cell line HT-29 cells
Test: Growth inhibitory effect against cancer cell lines (3H-thymidine uptake), HT-29
Format: cell-based
Settings: Homo sapiens, HT-29, inhibition of 3H-thymidine uptake; test substance 18 hrs, then 3H-thymidine 6 hrs; triplicate
How it was run: (§1)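 Cells seeded at 1.0×10^4/well, grown 24 hrs, then exposed to compound in DMSO for 18 hrs before 6 hrs pulse with ^3H-thymidine (0.25 μCi/well). Harvested cell-incorporated radioactivity counted; IC50 is the concentration halving uptake versus DMSO control, triplicate.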

SMILES	IC50 [nM]
C=Cc1ccc(Nc2cc(=O)n(C)c3c2c(=O)n(C2CC2)c(=O)n3-c2ccccc2)c(F)c1 [Example 1-240]	10 to 100
CCc1ccc(Nc2cc(=O)n(C)c3c2c(=O)n(C2CC2)c(=O)n3-c2ccccc2)c(F)c1 [Example 1-242]	10 to 100
Cn1c(=O)cc(Nc2ccc(Br)cc2F)c2c(=O)n(C3CC3)c(=O)n(-c3cccc(CCCO)c3)c21 [Example 1-243]	10 to 100
CC(=O)Nc1cccc(-n2c(=O)n(C3CC3)c(=O)c3c(Nc4ccc(Br)cc4F)cc(=O)n(C)c32)c1 [Example 1-245]	< 10
Cn1c(=O)cc(Nc2ccc(Br)cc2F)c2c(=O)n(C3CC3)c(=O)n(-c3cccc(N)c3)c21 [Example 1-264]	10 to 100
Cn1c(=O)cc(Nc2ccc(C3CC3)cc2F)c2c(=O)n(C3CC3)c(=O)n(-c3ccccc3)c21 [Example 1-265]	10 to 100
COCC(=O)Nc1cccc(-n2c(=O)n(C3CC3)c(=O)c3c(Nc4ccc(Br)cc4F)cc(=O)n(C)c32)c1 [Example 1-266]	< 10
CCc1ccc(Nc2cc(=O)n(C)c3c2c(=O)n(C2CC2)c(=O)n3-c2cccc(NS(=O)(=O)CC)c2)c(F)c1 [Example 1-268]	10 to 100
CCCS(=O)(=O)Nc1cccc(-n2c(=O)n(C3CC3)c(=O)c3c(Nc4ccc(Br)cc4F)cc(=O)n(C)c32)c1 [Example 1-271]	< 10

Test system: p15 protein
Test: Evaluation of p15 induction activity (Western blotting)
Format: cell-based
Settings: test substance 0.1 μM, 24 hrs, ACHN cells or HT-29 cells, compared to DMSO, n=2
How it was run: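 p15 protein quantified by densitometry of anti-p15 Western blots (10 μg protein per lane, mean of n=2). Samples came from HT-29 or ACHN cells given 0.1 μM compound for 24 h after 24 h plating, with DMSO as control.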

SMILES	fold induction at 0.1 µM
C=Cc1ccc(Nc2cc(=O)n(C)c3c2c(=O)n(C2CC2)c(=O)n3-c2ccccc2)c(F)c1 [Example 1-240]	≥ 1.5
CCc1ccc(Nc2cc(=O)n(C)c3c2c(=O)n(C2CC2)c(=O)n3-c2ccccc2)c(F)c1 [Example 1-242]	≥ 1.5
Cn1c(=O)cc(Nc2ccc(Br)cc2F)c2c(=O)n(C3CC3)c(=O)n(-c3cccc(CCCO)c3)c21 [Example 1-243]	≥ 1.5
CC(=O)Nc1cccc(-n2c(=O)n(C3CC3)c(=O)c3c(Nc4ccc(Br)cc4F)cc(=O)n(C)c32)c1 [Example 1-245]	≥ 1.5
Cn1c(=O)cc(Nc2ccc(Br)cc2F)c2c(=O)n(C3CC3)c(=O)n(-c3cccc(N)c3)c21 [Example 1-264]	≥ 1.5
Cn1c(=O)cc(Nc2ccc(C3CC3)cc2F)c2c(=O)n(C3CC3)c(=O)n(-c3ccccc3)c21 [Example 1-265]	≥ 1.5
COCC(=O)Nc1cccc(-n2c(=O)n(C3CC3)c(=O)c3c(Nc4ccc(Br)cc4F)cc(=O)n(C)c32)c1 [Example 1-266]	≥ 1.5
CCc1ccc(Nc2cc(=O)n(C)c3c2c(=O)n(C2CC2)c(=O)n3-c2cccc(NS(=O)(=O)CC)c2)c(F)c1 [Example 1-268]	≥ 1.5
CCCS(=O)(=O)Nc1cccc(-n2c(=O)n(C3CC3)c(=O)c3c(Nc4ccc(Br)cc4F)cc(=O)n(C)c32)c1 [Example 1-271]	≥ 1.5

Test system: p27 protein
Test: p27 protein induction test (Western blotting)
Format: cell-based
Settings: test substance (0.1 1M), 24 hrs, ACHN cells or HT-29 cells, compared to DMSO, n=2
Experimental: ACHN cells or HT-29 cells were cultured in a 6 well plate at 2.5×10^5 cells/1.8 mL/well for 24 hrs, a test substance ([…]) dissolved in DMSO was added. After 24 hrs, cells were detached using trypsin-EDTA (ethylene diamine tetraacetic acid) and solubilized with NuPAGE LDS sample buffer (Invitrogen). Using an RC DC protein assay kit (BIO-RAD), the protein concentration of the sample was quantitated, and a sample in an amount corresponding to 10 μg of BSA (bovine serum albumin) was analyzed by Western blotting using an anti-p27 antibody. The density of the band stained with the anti-p27 antibody was measured by a densitometer to quantify the amount of p27 protein. As a control, DMSO was used and the test was performed with n=2 and the average protein amount was determined.

SMILES	fold induction at 0.1 µM
C=Cc1ccc(Nc2cc(=O)n(C)c3c2c(=O)n(C2CC2)c(=O)n3-c2ccccc2)c(F)c1 [Example 1-240]	≥ 1.5
CCc1ccc(Nc2cc(=O)n(C)c3c2c(=O)n(C2CC2)c(=O)n3-c2ccccc2)c(F)c1 [Example 1-242]	≥ 1.5
Cn1c(=O)cc(Nc2ccc(Br)cc2F)c2c(=O)n(C3CC3)c(=O)n(-c3cccc(CCCO)c3)c21 [Example 1-243]	≥ 1.5
CC(=O)Nc1cccc(-n2c(=O)n(C3CC3)c(=O)c3c(Nc4ccc(Br)cc4F)cc(=O)n(C)c32)c1 [Example 1-245]	≥ 1.5
Cn1c(=O)cc(Nc2ccc(Br)cc2F)c2c(=O)n(C3CC3)c(=O)n(-c3cccc(N)c3)c21 [Example 1-264]	≥ 1.5
Cn1c(=O)cc(Nc2ccc(C3CC3)cc2F)c2c(=O)n(C3CC3)c(=O)n(-c3ccccc3)c21 [Example 1-265]	≥ 1.5
COCC(=O)Nc1cccc(-n2c(=O)n(C3CC3)c(=O)c3c(Nc4ccc(Br)cc4F)cc(=O)n(C)c32)c1 [Example 1-266]	≥ 1.5
CCc1ccc(Nc2cc(=O)n(C)c3c2c(=O)n(C2CC2)c(=O)n3-c2cccc(NS(=O)(=O)CC)c2)c(F)c1 [Example 1-268]	≥ 1.5
CCCS(=O)(=O)Nc1cccc(-n2c(=O)n(C3CC3)c(=O)c3c(Nc4ccc(Br)cc4F)cc(=O)n(C)c32)c1 [Example 1-271]	≥ 1.5

Test system: Renal cancer cell line ACHN cell
Test: Growth inhibitory effect against cancer cell lines (3H-thymidine uptake), ACHN
Format: cell-based
Settings: Homo sapiens, ACHN
How it was run: as §1

SMILES	IC50 [nM]
C=Cc1ccc(Nc2cc(=O)n(C)c3c2c(=O)n(C2CC2)c(=O)n3-c2ccccc2)c(F)c1 [Example 1-240]	10 to 100
CCc1ccc(Nc2cc(=O)n(C)c3c2c(=O)n(C2CC2)c(=O)n3-c2ccccc2)c(F)c1 [Example 1-242]	100 to 1000
Cn1c(=O)cc(Nc2ccc(Br)cc2F)c2c(=O)n(C3CC3)c(=O)n(-c3cccc(CCCO)c3)c21 [Example 1-243]	100 to 1000
CC(=O)Nc1cccc(-n2c(=O)n(C3CC3)c(=O)c3c(Nc4ccc(Br)cc4F)cc(=O)n(C)c32)c1 [Example 1-245]	10 to 100
Cn1c(=O)cc(Nc2ccc(Br)cc2F)c2c(=O)n(C3CC3)c(=O)n(-c3cccc(N)c3)c21 [Example 1-264]	100 to 1000
Cn1c(=O)cc(Nc2ccc(C3CC3)cc2F)c2c(=O)n(C3CC3)c(=O)n(-c3ccccc3)c21 [Example 1-265]	100 to 1000
COCC(=O)Nc1cccc(-n2c(=O)n(C3CC3)c(=O)c3c(Nc4ccc(Br)cc4F)cc(=O)n(C)c32)c1 [Example 1-266]	100 to 1000
CCc1ccc(Nc2cc(=O)n(C)c3c2c(=O)n(C2CC2)c(=O)n3-c2cccc(NS(=O)(=O)CC)c2)c(F)c1 [Example 1-268]	10 to 100
CCCS(=O)(=O)Nc1cccc(-n2c(=O)n(C3CC3)c(=O)c3c(Nc4ccc(Br)cc4F)cc(=O)n(C)c32)c1 [Example 1-271]	10 to 100
